Laboratory results reported in US5612476A, “Anti-endotoxin compounds” (priority 1995, dated 1997).
pIC50: −log10 of the molar value. Several values for one entry are separate records, joined by “and”; a condition that tells them apart may be missing. Equal values may be shown once.

Assays:
[1] = tested on: LPS-induced TNF production; set-up: species or system C57BL/6 mice; settings: mouse, iv
[2] = tested on: LPS-induced TNF production; experiment: In vivo inhibition of LPS-induced TNF production in guinea pigs; settings: optimum ED50's
[3] = tested on: guinea pig macrophages; experiment: cells; format: cell-based, Hartley-White guinea pig; settings: for inhibition of LPS-induced TNF production: guinea pig macrophages, LPS 10 ng/ml, in words
[4] = tested on: mouse macrophages; experiment: cells; format: cell-based, C57BL/6 mouse; settings: for inhibition of LPS-induced TNF production: mouse macrophages, LPS 10 ng/ml, in words
[5] = tested on: HIV LTR; experiment: Suppression of LPS-stimulated HIV LTR activation in stably transfected U938 cell line (HIV-1 LTR-CAT); settings: Human immunodeficiency virus 1, 24 h, read-out: IC50 for suppression of LPS-stimulated HIV LTR activation
Protocol: Experiments were carried out using one such stably-transfected cell line, i.e., the U938 cell line of Latham et al. (Cell. Immunol. 129:513, 1990). Cells were cultured as described in Latham et al. (1990, supra), and 10^6 cells were treated with a lipid A analog (at a concentration of between 0.0 and 1.0 μM). Thirty minutes after addition of the analog, cells were treated with phorbol myristate acetate (at a concentration of 0.33 ng/ml; described above) and E. coli 0111:B4 LPS (at a concentration of 33 ng/ml; described above). Cells were cultured for an additional 24 hours, harvested, and assayed for CAT activity as described above.

[6] = tested on: human monocytes; experiment: In vitro inhibition of LPS-induced TNF production in human monocytes (ELISA); format: cell-based; settings: Monocyte, E. coli 0111:B4 LPS 10 ng/ml, 3 h, read-out: ED50 for inhibition of LPS-induced production of TNF
Protocol: Both bacterial LPS and bacterial lipid A elicit production of tumor necrosis factor (TNF) and IL-1β in cultured human monocytes (J. Immunol. 139:429, 1987).
Monocytes were isolated from human blood by Percoll density gradient centrifugation, plated at approximately 1×10^6 cells/well on a 48-well plate in RPMI 1640 medium (GIBCO, Grand Island, N.Y.) containing 10% human serum (Sigma Chemical Co., St. Louis, Mo.) and incubated for two to three hours. Bacterial LPS (i.e., from E. coli 0111:B4; Sigma Chemicals, St. Louis, Mo.) at 10 ng/ml or lipid A (Daiichi Chemicals, Tokyo, Japan) at 1.0 ng/ml in RPMI 1640 medium were combined with 0.45 ml of RPMI 1640 medium containing 1% human serum and added to the cultured monocytes. In experiments involving a lipid A analog, the analog was added immediately before addition of LPS or lipid A in varying concentrations (e.g., between 0 and 100 μM in a 50 μl aliquot). Following a three-hour incubation period, a 0.1 ml aliquot of the culture supernatant was assayed for the presence of TNF and IL-1β. TNF and IL-1β were assayed using the ELISA assay of R & D Systems (Minneapolis, Minn.) and the instructions of the manufacturer, however, any other standard ELISA kits may be utilized, for example, the kit available from Genzyme, Cambridge, Mass. Experiments were performed in triplicate.

Row | SMILES | inhibition of TNF production in vivo [1] | inhibition of LPS-induced TNF production [3] | inhibition of LPS-induced TNF production [4] | further results
1 | CCCCCC/C=C\CCCC(=O)O[C@H](CCCCCCC)CC(=O)O[C@@H]1[C@@H](NC(=O)CC(=O)CCCCCCCCCCC)[C@H](OC[C@H]2O[C@H](OP(=O)(O)O)[C@H](NC(=O)CC(=O)CCCCCCCCCCC)[C@@H](OC(=O)C[C@H](O)CCCCCCC)[C@@H]2O)O[C@H](CO)[C@H]1OP(=O)(O)O [Analog B214-31] | inhibited TNF production | – | – | –
2 | CCCCCC/C=C\CCCC(=O)O[C@H](CCCCCCC)CC(=O)O[C@@H]1[C@@H](NC(=O)CC(=O)CCCCCCCCCCC)[C@H](OC[C@H]2O[C@H](OP(=O)(O)O)[C@H](NC(=O)CC(=O)CCCCCCCCCCC)[C@@H](OC(=O)C[C@H](O)CCCCCCC)[C@@H]2O)O[C@H](CO)[C@H]1OP(=O)(O)O [Analog B214-32] | inhibited TNF production | inhibited LPS-induced TNF production | inhibited LPS-induced TNF production | optimum ED50 for inhibition of LPS-induced TNF production in vivo [2]: 7.5 μg/guinea pig and 5 μg/guinea pig
3 | CCCCCC/C=C\CCCC(=O)O[C@H](CCCCCCC)CC(=O)O[C@@H]1[C@@H](NC(=O)CC(=O)CCCCCCCCCCC)[C@H](OC[C@H]2O[C@H](OP(=O)(O)O)[C@H](NC(=O)CC(=O)CCCCCCCCCCC)[C@@H](OC(=O)C[C@H](O)CCCCCCC)[C@@H]2O)O[C@H](CO)[C@H]1OP(=O)(O)O [Analog B214-33] | inhibited TNF production | – | – | –
4 | CCCCCC/C=C\CCCC(=O)O[C@H](CCCCCCC)CC(=O)O[C@@H]1[C@@H](NC(=O)CC(=O)CCCCCCCCCCC)[C@H](OC[C@H]2O[C@H](OP(=O)(O)O)[C@H](NC(=O)C[C@H](O)CCCCCCCCCCC)[C@@H](OC(=O)C[C@H](O)CCCCCCC)[C@@H]2O)O[C@H](CO)[C@H]1OP(=O)(O)O [Analog B218-32] | inhibited TNF production | – | – | –
5 | CCCCCC/C=C\CCCC(=O)O[C@H](CCCCCCC)CC(=O)O[C@@H]1[C@@H](NC(=O)/C=C/CCCCCCCCCCC)[C@H](OC[C@H]2O[C@H](OP(=O)(O)O)[C@H](NC(=O)/C=C/CCCCCCCCCCC)[C@@H](OC(=O)C[C@H](O)CCCCCCC)[C@@H]2O)O[C@H](CO)[C@H]1OP(=O)(O)O [Analog B286-32] | inhibited TNF production | – | – | –
6 | CCCCCC/C=C\CCCCO[C@H](CCCCCCC)CC(=O)O[C@@H]1[C@@H](NC(=O)CC(=O)CCCCCCCCCCC)[C@H](OC[C@H]2O[C@H](OP(=O)(O)O)[C@H](NC(=O)CC(=O)CCCCCCCCCCC)[C@@H](OC(=O)C[C@H](O)CCCCCCC)[C@@H]2O)O[C@H](CO)[C@H]1OP(=O)(O)O [Analog B294-32] | inhibited TNF production | – | – | –
7 | CCCCCC/C=C\CCCC(=O)O[C@H](CCCCCCC)CC(=O)O[C@@H]1[C@@H](NC(=O)CC(=O)CCCCCCCCCCC)[C@H](OC[C@H]2O[C@H](OP(=O)(O)O)[C@H](NC(=O)/C=C/CCCCCCCCCCC)[C@@H](OC(=O)C[C@H](O)CCCCCCC)[C@@H]2O)O[C@H](CO)[C@H]1OP(=O)(O)O [Analog B313-32] | inhibited TNF production | – | – | –
8 | CCCCCC/C=C\CCNC(=O)O[C@H](CCCCCCC)CC(=O)O[C@@H]1[C@@H](NC(=O)CC(=O)CCCCCCCCCCC)[C@H](OC[C@H]2O[C@H](OP(=O)(O)O)[C@H](NC(=O)CC(=O)CCCCCCCCCCC)[C@@H](OC(=O)C[C@H](O)CCCCCCC)[C@@H]2O)O[C@H](CO)[C@H]1OP(=O)(O)O [Analog B379-32] | inhibited TNF production | – | – | –
9 | CCCCCCC/C=C/C(=O)O[C@@H]1[C@@H](NC(=O)CC(=O)CCCCCCCCCCC)[C@H](OC[C@H]2O[C@H](OP(=O)(O)O)[C@H](NC(=O)CC(=O)CCCCCCCCCCC)[C@@H](OC(=O)C[C@H](O)CCCCCCC)[C@@H]2O)O[C@H](CO)[C@H]1OP(=O)(O)O [Analog B400-32] | inhibited TNF production | – | – | pIC50 [5]: 6.59 to 7.82
10 | CCCCCC/C=C\CCCC(=O)O[C@H](CCCCCCC)CC(=O)O[C@@H]1[C@@H](NC(=O)CC(=O)CCCCCCCCCCC)[C@H](OC[C@H]2O[C@H](OP(=O)(O)O)[C@H](NC(=O)CC(=O)CCCCCCCCCCC)[C@@H](OCC[C@H](O)CCCCCCC)[C@@H]2O)O[C@H](CO)[C@H]1OP(=O)(O)O [Analog B410-32] | inhibited TNF production | inhibited LPS-induced TNF production | inhibited LPS-induced TNF production | –
11 | CCCCCC/C=C\CCCC(=O)O[C@H](CCCCCCC)CC(=O)O[C@@H]1[C@@H](NC(=O)CS(=O)(=O)CCCCCCCCCCC)[C@H](OC[C@H]2O[C@H](OP(=O)(O)O)[C@H](NC(=O)CS(=O)(=O)CCCCCCCCCCC)[C@@H](OC(=O)C[C@H](O)CCCCCCC)[C@@H]2O)O[C@H](CO)[C@H]1OP(=O)(O)O [Analog B425-32] | inhibited TNF production | – | – | –
12 | CCCCCC/C=C\CCCC(=O)O[C@H](CCCCCCC)CC(=O)O[C@@H]1[C@@H](NC(=O)CC(=O)CCCCCCCCCCC)[C@@H](OC[C@H]2O[C@H](OP(=O)(O)O)[C@H](NC(=O)CC(=O)CCCCCCCCCCC)[C@@H](OC(=O)C[C@H](O)CCCCCCC)[C@@H]2O)O[C@H](CO)[C@H]1OP(=O)(O)O [Analog B426-32] | inhibited TNF production | – | – | –
13 | CCCCCC/C=C\CCCC(=O)O[C@H](CCCCCCC)CCO[C@@H]1[C@@H](NC(=O)CC(=O)CCCCCCCCCCC)[C@H](OC[C@H]2O[C@H](OP(=O)(O)O)[C@H](NC(=O)CC(=O)CCCCCCCCCCC)[C@@H](OCC[C@H](O)CCCCCCC)[C@@H]2O)O[C@H](CO)[C@H]1OP(=O)(O)O [Analog B427-32] | – | inhibited LPS-induced TNF production | inhibited LPS-induced TNF production | pIC50 [5]: 6.59 to 7.82
14 | CCCCCC/C=C\CCCC(=O)O[C@H](CCCCCCC)CCO[C@@H]1[C@@H](NC(=O)C[S+]([O-])CCCCCCCCCCC)[C@H](OC[C@H]2O[C@H](OP(=O)(O)O)[C@H](NC(=O)C[S+]([O-])CCCCCCCCCCC)[C@@H](OCC[C@H](O)CCCCCCC)[C@@H]2O)O[C@H](CO)[C@H]1OP(=O)(O)O (stereo partly shown) [Analog B459-32] | – | inhibited LPS-induced TNF production | inhibited LPS-induced TNF production | –
15 | CCCCCC/C=C\CCCC(=O)O[C@H](CCCCCCCC)CCO[C@@H]1[C@@H](NC(=O)CC(=O)CCCCCCCCCCC)[C@H](OC[C@H]2O[C@H](OP(=O)(O)O)[C@H](NC(=O)CC(=O)CCCCCCCCCCC)[C@@H](OCC[C@H](O)CCCCCCCC)[C@@H]2O)O[C@H](COC)[C@H]1OP(=O)(O)O [Analog B464-32] | – | inhibited LPS-induced TNF production | inhibited LPS-induced TNF production | –
16 | CCCCCC/C=C\CCCC(=O)O[C@H](CCCCCCC)CCO[C@@H]1[C@@H](NC(=O)CC(=O)CCCCCCCCCCC)[C@H](OC[C@H]2O[C@H](OP(=O)(O)O)[C@H](NC(=O)CC(=O)CCCCCCCCCCC)[C@@H](OCC[C@H](O)CCCCCCC)[C@@H]2O)O[C@H](COC)[C@H]1OP(=O)(O)O [Analog B531-35] | – | – | – | pIC50 [6]: ~10.70; pIC50 ([3]; Cavia porcellus, Macrophage, 3 h, read-out: ED50 for inhibition of LPS-induced TNF production): 9.18; ED50 for inhibition of TNF production in vivo [1]: 16.2 μg/mouse; pIC50 ([4]; Mus musculus, Macrophage, 3 h, read-out: ED50 for inhibition of LPS-induced TNF production): 8.65
17 | CCCCCC/C=C\CCCC(=O)O[C@H](CCCCCCC)CCO[C@@H]1[C@@H](NC(=O)CC(=O)CCCCCCCCCCC)[C@H](OC[C@H]2O[C@H](OP(=O)(O)O)[C@H](NC(=O)CC(=O)CCCCCCCCCCC)[C@@H](OCC[C@H](O)CCCCCCC)[C@@H]2OC(C)=O)O[C@H](COC)[C@H]1OP(=O)(O)O [Analog B718-35] | – | inhibited LPS-induced TNF production | inhibited LPS-induced TNF production | –
